How the values were obtained:
TMD8 cells = assay: MTT viability assay, TMD8 cells, 72 hours; type: cell-based, human; conditions: Homo sapiens, TMD8, 72 h, MTT
Description: Cell viability was assessed after 72 hours of incubation.

OCT3 = target: T1, OCT3 (Homo sapiens, UniProt O75751); assay: In vitro transport assay, cells overexpressing OCT3; type: cell-based; conditions: OCT3 vs empty vector; 15 minutes
T1 construct: expressed in transfected cells; compared with empty vector control
T1 sequence (O75751 1-556): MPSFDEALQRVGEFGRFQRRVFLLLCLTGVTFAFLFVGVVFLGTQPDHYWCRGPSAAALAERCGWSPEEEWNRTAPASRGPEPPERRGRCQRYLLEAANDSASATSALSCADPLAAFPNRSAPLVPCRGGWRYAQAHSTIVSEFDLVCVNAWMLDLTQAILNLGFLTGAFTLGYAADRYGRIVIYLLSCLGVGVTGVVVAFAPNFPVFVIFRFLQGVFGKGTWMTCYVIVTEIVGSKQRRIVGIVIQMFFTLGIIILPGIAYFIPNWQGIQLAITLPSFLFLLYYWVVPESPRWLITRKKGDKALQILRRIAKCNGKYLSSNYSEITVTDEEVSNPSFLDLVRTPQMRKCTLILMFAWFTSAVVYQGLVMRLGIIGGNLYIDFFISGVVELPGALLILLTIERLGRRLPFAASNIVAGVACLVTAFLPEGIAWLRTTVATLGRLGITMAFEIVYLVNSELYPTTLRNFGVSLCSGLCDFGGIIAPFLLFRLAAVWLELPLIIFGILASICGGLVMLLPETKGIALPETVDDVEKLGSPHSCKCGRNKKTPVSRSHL

Caco-2 = system: Caco-2; parameters: method as in earlier work; conditions: PBPK model parameter; ref [17, 18] and Drugbank; cited from earlier work
[1] = Cardiac distribution of ibrutinib in mice (heart-to-plasma ratio); conditions: female wild-type mice; six hours after ibrutinib 10 mg/kg orally; cobicistat 30 mg/kg pretreatment vs vehicle; P < 0.01
[2] = parameters: method as in earlier work; conditions: PBPK model parameter, ref [17, 18] and Drugbank, cited from earlier work

SMILES | IC50 (TMD8 cells; None (Fig. 2A, ketoconazole panel)) [nM] | IC50 (TMD8 cells; None (Fig. 2B, cobicistat panel)) [nM] | IC50 (TMD8 cells; with 0.1 μmol/L cobi) [nM] | IC50 (TMD8 cells; with 0.1 μmol/L keto) [nM] | IC50 (TMD8 cells; with 1 μmol/L cobi) [nM] | IC50 (TMD8 cells; with 1 μmol/L keto) [nM] | IC50 (TMD8 cells; with 10 μmol/L cobi) [nM] | IC50 (TMD8 cells; with 10 μmol/L keto) [nM] | uptake of ibrutinib by transporter-overexpressing cells (OCT3) | Caco-2 (Caco-2) [×10⁻⁶ cm/s] | heart levels of ibrutinib normalized to plasma levels [1] | Clpo ([2]; oral clearance) | Vss ([2]; steady-state volume of distribution) [L/kg]
C=CC(=O)N1CCC[C@@H](n2nc(-c3ccc(Oc4ccccc4)cc3)c3c(N)ncnc32)C1 [Ibrutinib] | 1.4 | 1.4 | 1.3 | 1.1 | 1.1 | 1 | 0.82 | 0.88 | not substantially facilitated | 32.6 | substantially lower levels | – | –
Nc1ncnc2c1c(-c1ccc(Oc3ccccc3)cc1)nn2[C@@H]1CCCN(C(=O)C(O)CO)C1 (stereo partly shown) [PCI-45227] | – | – | – | – | – | – | – | – | – | – | – | Clpo (L/h) : 433 | 9.0
